Values after ≈ are worked out from the molar mass of the structure shown. Where two headings read alike, the source gives them in different places.
Columns and labels:
[1] = system: Mycobacterium smegmatis SG 987; assay: MIC by broth micro dilution method in Mueller-Hinton broth (NCCLS); assay type: cell-based; details: Mycolicibacterium smegmatis
Protocol: (§1) Determination of the in vitro inhibitory activity of the compounds of the invention against mycobacteria.
(§2) The antibacterial activities of the compounds against Mycobacterium smegmatis SG 987, M. aurum SB66, M. vaccae IMET 10670 and M. fortuitum B were tested by determination of minimal inhibitory concentrations (MIC) by the broth micro dilution method in Mueller-Hinton broth (Difco) according to the NCCLS guidelines [National Committee for Clinical Laboratory Standards: Methods for dilution antimicrobial susceptibility tests for bacteria that grow aerobically; 5th Ed.; Villanova, Ed.; Approved standard Document M7-A5. NCCLS, (2000)].

M. vaccae IMET 10670 = assay: as above; assay type: cell-based; details: Mycolicibacterium vaccae
Protocol: as §1, §2

M. fortuitum B = assay: as above; assay type: cell-based; details: Mycolicibacterium fortuitum, read-out: M. fortuitum MIC
Protocol: as §1, §2

M. tuberculosis H37Rv [2] = assay: MIC and MBC, classical method (liquid Shkolnikova medium, Lowenstein-Jensen medium); assay type: cell-based; details: Mycobacterium tuberculosis; for MIC: 336 h
M. tuberculosis H37Rv [3] = assay: resazurin reduction assay (MIC96), Alamar Blue method; assay type: cell-based; details: Mycobacterium tuberculosis, read-out: minimal inhibitory concentrations (MIC) M. tuberculosis H37Rv
Protocol: Activity against M. tuberculosis H37Rv was determined by the resazurin reduction assay (MIC96) too. The method was described in detail in: P. Quillardet, O. Huisman, R. D'Ari, M. Hofnung, Proc. Natl. Acad. Sci. USA, 1982, 79, 5971-5; J. C. Palomino, A. Martin, M. Camacho, H. Guerra, J. Swings, F. Portaels, Antimicrob. Agents Chemother., 2002, 46, 2720-2.

[4] = SG987, broth micro dilution, Mueller-Hinton broth, read-out: M. smegmatis MIC
[5] = IMET10670, broth micro dilution, Mueller-Hinton broth, read-out: M. vaccae MIC
[6] = broth micro dilution, Mueller-Hinton broth
[7] = strain H37Rv, liquid Shkolnikova medium, 14 days at 37° C., read-out: MIC
[8] = strain H37Rv, solid drug free Lowenstein-Jensen medium, 21-28 days, read-out: MBC

O=c1nc(N2CCN(c3cccc(C(F)(F)F)c3)CC2)sc2c([N+](=O)[O-])cc(C(F)(F)F)cc12 [Compound 3, 8-Nitro-6-(trifluoromethyl)-2-{4-[3-(trifluoromethyl)phenyl]piperazin-1-yl}-4H-1,3-benzothiazin-4-one]
MIC [1, 4]: 40 ng/mL (≈ 79.3 nM) | MIC (M. vaccae IMET 10670; [5]): 3.1 ng/mL (≈ 6.15 nM) | MIC (M. fortuitum B; [6]): 3.1 ng/mL (≈ 6.15 nM) | melting point: 201 to 203 °C

Cc1ccc(Cl)cc1N1CCN(c2nc(=O)c3cc(C(F)(F)F)cc([N+](=O)[O-])c3s2)CC1 [Compound 2, 2-[4-(5-chloro-2-methylphenyl)piperazin-1-yl]-8-nitro-6-(trifluoromethyl)-4H-1,3-benzothiazin-4-one]
MIC [1, 4]: 50 ng/mL (≈ 103 nM) | MIC (M. vaccae IMET 10670; [5]): 8 ng/mL (≈ 16.5 nM) | MIC (M. fortuitum B; [6]): 31 ng/mL (≈ 63.9 nM) | melting point: 158 to 161 °C

O=c1nc(NCc2ccccc2)sc2c([N+](=O)[O-])cc(C(F)(F)F)cc12 [Compound 8, 2-(Benzylamino)-8-nitro-6-(trifluoromethyl)-4H-1,3-benzothiazin-4-one]
MIC [1, 4]: 0.78 ng/mL (≈ 2.05 nM) | MIC (M. vaccae IMET 10670; [5]): < 0.0121 ng/mL | MIC (M. fortuitum B; [6]): 0.78 ng/mL (≈ 2.05 nM) | melting point: 192 to 194 °C | MBC (M. tuberculosis H37Rv [2]; H37RV): 1560 ng/mL (≈ 4090 nM) | MIC (M. tuberculosis H37Rv [2]; H37RV): 1560 ng/mL (≈ 4090 nM) | MIC (M. tuberculosis H37Rv [3]): 50 ng/mL (≈ 131 nM)

CN(Cc1ccccc1)c1nc(=O)c2cc(Cl)cc([N+](=O)[O-])c2s1 [Compound 10, 2-[Benzyl(methyl)amino]-6-chloro-8-nitro-4H-1,3-benzothiazin-4-one]
MIC [1, 4]: 6.2 ng/mL (≈ 17.1 nM) | MIC (M. vaccae IMET 10670; [5]): 0.31 ng/mL (≈ 0.857 nM) | MIC (M. fortuitum B; [6]): 1.56 ng/mL (≈ 4.31 nM) | melting point: 138 to 141 °C | MIC (M. tuberculosis H37Rv [2]; [7]): < 390 ng/mL | MBC (M. tuberculosis H37Rv [2]; [8]): 780 ng/mL (≈ 2160 nM) | MIC (M. tuberculosis H37Rv [3]): 25 ng/mL (≈ 69.1 nM)

NNC(=O)c1ccncc1 [Isoniazid (INH), Isoniazid, reference compound]
MIC (M. tuberculosis H37Rv [2]; [7]): 780 ng/mL (≈ 5690 nM) | MBC (M. tuberculosis H37Rv [2]; [8]): 1560 ng/mL (≈ 11400 nM) | MIC (M. tuberculosis H37Rv [3]): 125 ng/mL (≈ 911 nM)

O=c1nc(N2CCN(c3ccc(Cl)cc3)CC2)sc2c([N+](=O)[O-])cc([N+](=O)[O-])cc12 [Compound 1, 2-[4-(4-Chlorophenyl)piperazin-1-yl]-6,8-dinitro-4H-1,3-benzothiazin-4-one]
MIC ([1]; SG987, read-out: M. smegmatis MIC): 780 ng/mL (≈ 1740 nM) | MIC (M. vaccae IMET 10670; IMET10670, read-out: M. vaccae MIC): 6.2 ng/mL (≈ 13.8 nM) | MIC (M. fortuitum B): 780 ng/mL (≈ 1740 nM) | melting point: 279 to 281 °C

C[C@H](c1ccccc1)N(C)c1nc(=O)c2cc(C(F)(F)F)cc([N+](=O)[O-])c2s1 [Compound 9, 2-{Methyl[(1R)-1-phenylethyl]amino}-8-nitro-6-(trifluoromethyl)-4H-1,3-benzothiazin-4-one]
MIC [1, 4]: < 0.0121 ng/mL | MIC (M. vaccae IMET 10670; [5]): < 0.0121 ng/mL | MIC (M. fortuitum B; [6]): < 0.0121 ng/mL | melting point: 110 to 113 °C | MIC (M. tuberculosis H37Rv [3]): 0.4 ng/mL (≈ 0.977 nM)

CN(Cc1ccccc1)c1nc(=O)c2cc(C(F)(F)F)cc([N+](=O)[O-])c2s1 [Compound 5, 2-[Benzyl(methyl)amino]-8-nitro-6-(trifluoromethyl)-4H-1,3-benzothiazin-4-one]
MIC [1, 4]: 15.6 ng/mL (≈ 39.5 nM) | MIC (M. vaccae IMET 10670; [5]): 0.5 ng/mL (≈ 1.26 nM) | MIC (M. fortuitum B; [6]): 15.6 ng/mL (≈ 39.5 nM) | melting point: 120 to 124 °C | MBC (M. tuberculosis H37Rv [2]; H37RV): 3120 ng/mL (≈ 7890 nM) | MIC (M. tuberculosis H37Rv [2]; H37RV): 1560 ng/mL (≈ 3950 nM) | MIC (M. tuberculosis H37Rv [3]): 3 ng/mL (≈ 7.59 nM)

O=c1nc(N2CCN(Cc3ccccc3)CC2)sc2c([N+](=O)[O-])cc(C(F)(F)F)cc12 [Compound 7, 2-(4-Benzylpiperazin-1-yl)-8-nitro-6-(trifluoromethyl)-4H-1,3-benzothiazin-4-one]
MIC [1, 4]: 50 ng/mL (≈ 111 nM) | MIC (M. vaccae IMET 10670; [5]): 50 ng/mL (≈ 111 nM) | MIC (M. fortuitum B; [6]): 50 ng/mL (≈ 111 nM) | melting point: 161 to 163 °C

O=c1nc(N2CCN(c3ccccc3F)CC2)sc2c([N+](=O)[O-])cc(C(F)(F)F)cc12 [Compound 6, 2-[4-(2-Fluorophenyl)piperazin-1-yl]-8-nitro-6-(trifluoromethyl)-4H-1,3-benzothiazin-4-one]
MIC [1, 4]: 5 ng/mL (≈ 11 nM) | MIC (M. vaccae IMET 10670; [5]): 5 ng/mL (≈ 11 nM) | MIC (M. fortuitum B; [6]): 5 ng/mL (≈ 11 nM) | melting point: 164 to 168 °C

CCN(Cc1ccccc1)c1nc(=O)c2cc(C(F)(F)F)cc([N+](=O)[O-])c2s1 [Compound 4, 2-[Benzyl(ethyl)amino]-8-nitro-6-(trifluoromethyl)-4H-1,3-benzothiazin-4-one]
MIC [1, 4]: 6.2 ng/mL (≈ 15.1 nM) | MIC (M. vaccae IMET 10670; [5]): 0.8 ng/mL (≈ 1.95 nM) | MIC (M. fortuitum B; [6]): 6.2 ng/mL (≈ 15.1 nM) | melting point: 94 to 97 °C | MIC (M. tuberculosis H37Rv [3]): 2 ng/mL (≈ 4.89 nM)
